Laboratory results: patent US20070060529A1, “ADMINISTRATION OF DIPEPTIDYL PEPTIDASE INHIBITORS” (priority 2005, published 2007)

Test system: db/db (BKS.Cg-+Lepr^db/+Lepr^db) mice
Test: Plasma glucose after 21 days of administration in powder chow, alone or with pioglitazone
Assay type: in vivo
Conditions: male db/db mice, 21 days in powder chow, feeding condition; average (n=7) ± standard deviation
Experimental: Male db/db (BKS.Cg-+Lepr^db/+Lepr^db) mice (6 weeks of age, CLEA Japan (Tokyo, Japan)) were divided into 4 groups (n=7 in each group) comprising Group A to Group D. Group A had free access to CE-2 powder chow (CLEA Japan) for 21 days. […] Group C had free access to CE-2 powder chow (CLEA Japan) containing 0.0075% (w/w) of pioglitazone hydrochloride for 21 days. The dose of pioglitazone in Group C was calculated to be 17.7±0.6 (mean±SD) mg/kg body weight/day. […] During 21 days of administration of the powder chow, there were not significant differences in the administration amount of the powder chow in the above 4 groups. After 21 days of administration of the powder chow, blood samples were taken from the orbital veins of the mice by capillary pipette under feeding condition, and plasma glucose levels were enzymatically measured by using Autoanalyzer 7080 (Hitachi, Japan).
The values in the table means average (n=7)±standard deviation.

## N#Cc1ccccc1Cn1c(N2CCC[C@@H](N)C2)ncc(F)c1=O [Compound I, 2-[[2-[(3R)-3-Amino-piperidinyl)-5-fluoro-6-oxo-6H-pyrimidinyl]methyl]-benzonitrile]
  Plasma Glucose: 412.4 ± 77.5 mg/dL

## CCc1ccc(CCOc2ccc(CC3SC(=O)NC3=O)cc2)nc1 (centres unmarked) [Pioglitazone, 5-{[4-(2-(5-ethyl-2-pyridyl)ethoxy)phenyl]-methyl}-thiazolidine-2,4-dione]
  Plasma Glucose: 394.4 ± 47.9 mg/dL
